# Data reported in BindingDB's records for doi:10.1016/j.bmcl.2004.10.029 (Glaxosmithkline, 2005).
# How the values were obtained:
# [1] = target: T1, Dimer of Gag-Pol polyprotein [501-599,Q508K,L534I,L564I,C568A,C596A] (Human immunodeficiency virus 1, UniProt P03367, C568A/C596A/L534I/L564I/Q508K); assay: Protease Inhibition Assay; conditions: pH 6.4; 25 °C
# T1 construct: 501-599
# Procedure: The Ki values were determined using fluorogenic substrate, 2-(aminobenzoyl)-Thr-Ile-Nle-Phe(p-NO2)-Gln-ArgNH2. A standard curve relating changes in fluorescent intensity to changes in concentration of product was used to convert fluorescent changes into molar velocities. The amount of cleavage was determined by HPLC.
# [2] = target: T1, Dimer of Gag-Pol polyprotein [501-599,Q508K,L534I,L564I,C568A,C596A]; assay: Protease Inhibition Assay; conditions: pH 6.4; 25 °C; remark: listed apart in the source
SMILES,Ki [1],IC50 [2]
O=C(N[C@H]1c2ccccc2C[C@H]1O)[C@H](Cc1ccccc1)C[C@H](O)CN1C(=O)[C@@H](Cc2ccccc2)C[C@@H]1Cc1ccc(OCC(=O)N2CCOCC2)cc1 [pyrrolidinone based inhibitor 1k],0.1 nM,200 nM
O=C(N[C@H]1c2ccccc2C[C@H]1O)[C@H](Cc1ccccc1)C[C@H](O)CN1C(=O)[C@@H](Cc2ccccc2)C[C@@H]1Cc1ccc(OCCN2CCOCC2)cc1 [pyrrolidinone based inhibitor 1g],1.3 nM,960 nM
"O=C(N[C@H]1c2ccccc2C[C@H]1O)[C@H](Cc1ccc(OCc2ccccn2)cc1)C[C@H](O)CN1C(=O)[C@@H](Cc2ccccc2)C[C@@H]1Cc1ccccc1 [(2R,4S)-5-[(3S,5R)-3,5-dibenzyl-2-oxopyrrolidin-1-yl]-4-hydroxy-N-[(1S,2R)-2-hydroxy-2,3-dihydro-1H-inden-1-yl]-2-{[4-(pyridin-2-ylmethoxy)phenyl]methyl}pentanamide]",0.07 nM,380 nM
"NC(=O)COc1ccc(C[C@H](C[C@H](O)CN2C(=O)[C@@H](Cc3ccccc3)C[C@@H]2Cc2ccccc2)C(=O)N[C@H]2c3ccccc3C[C@H]2O)cc1 [(2R,4S)-2-{[4-(carbamoylmethoxy)phenyl]methyl}-5-[(3S,5R)-3,5-dibenzyl-2-oxopyrrolidin-1-yl]-4-hydroxy-N-[(1S,2R)-2-hydroxy-2,3-dihydro-1H-inden-1-yl]pentanamide]",0.07 nM,360 nM
O=C(N[C@H]1c2ccccc2C[C@H]1O)[C@H](Cc1ccccc1)C[C@H](O)CN1C(=O)[C@@H](Cc2ccccc2)C[C@@H]1Cc1ccccc1 [pyrrolidinone scaffold 8b],,0.05 nM
"O=C(N[C@H]1c2ccccc2C[C@H]1O)[C@H](Cc1ccccc1)C[C@H](O)CN1C(=O)[C@@H](Cc2ccccc2)C[C@@H]1Cc1ccc(OCCO)cc1 [(2R,4S)-2-benzyl-5-[(3S,5R)-3-benzyl-5-{[4-(2-hydroxyethoxy)phenyl]methyl}-2-oxopyrrolidin-1-yl]-4-hydroxy-N-[(1S,2R)-2-hydroxy-2,3-dihydro-1H-inden-1-yl]pentanamide]",0.3 nM,480 nM
"O=C(N[C@H]1c2ccccc2C[C@H]1O)[C@H](Cc1ccc(OCCN2CCOCC2)cc1)C[C@H](O)CN1C(=O)[C@@H](Cc2ccccc2)C[C@@H]1Cc1ccccc1 [(2R,4S)-5-[(3S,5R)-3,5-dibenzyl-2-oxopyrrolidin-1-yl]-4-hydroxy-N-[(1S,2R)-2-hydroxy-2,3-dihydro-1H-inden-1-yl]-2-({4-[2-(morpholin-4-yl)ethoxy]phenyl}methyl)pentanamide]",0.14 nM,83 nM
"O=C(N[C@H]1c2ccccc2C[C@H]1O)[C@H](Cc1ccc(Cc2ccccc2)cc1)C[C@H](O)CN1C(=O)[C@@H](Cc2ccccc2)C[C@@H]1Cc1ccccc1 [(2R,4S)-2-[(4-benzylphenyl)methyl]-5-[(3S,5R)-3,5-dibenzyl-2-oxopyrrolidin-1-yl]-4-hydroxy-N-[(1S,2R)-2-hydroxy-2,3-dihydro-1H-inden-1-yl]pentanamide]",0.11 nM,920 nM
"O=C(N[C@H]1c2ccccc2C[C@H]1O)[C@H](Cc1ccccc1)C[C@H](O)CN1C(=O)[C@@H](Cc2ccccc2)C[C@@H]1Cc1ccc(Cc2ccccc2)cc1 [(2R,4S)-2-benzyl-5-[(3S,5R)-3-benzyl-5-[(4-benzylphenyl)methyl]-2-oxopyrrolidin-1-yl]-4-hydroxy-N-[(1S,2R)-2-hydroxy-2,3-dihydro-1H-inden-1-yl]pentanamide]",0.13 nM,550 nM
"O=C(N[C@H]1c2ccccc2C[C@H]1O)[C@H](Cc1ccc(O)cc1)C[C@H](O)CN1C(=O)[C@@H](Cc2ccccc2)C[C@@H]1Cc1ccccc1 [(2R,4S)-5-[(3S,5R)-3,5-dibenzyl-2-oxopyrrolidin-1-yl]-4-hydroxy-N-[(1S,2R)-2-hydroxy-2,3-dihydro-1H-inden-1-yl]-2-[(4-hydroxyphenyl)methyl]pentanamide]",0.06 nM,320 nM
"COCCOCCOc1ccc(C[C@H](C[C@H](O)CN2C(=O)[C@@H](Cc3ccccc3)C[C@@H]2Cc2ccccc2)C(=O)N[C@H]2c3ccccc3C[C@H]2O)cc1 [(2R,4S)-5-[(3S,5R)-3,5-dibenzyl-2-oxopyrrolidin-1-yl]-4-hydroxy-N-[(1S,2R)-2-hydroxy-2,3-dihydro-1H-inden-1-yl]-2-({4-[2-(2-methoxyethoxy)ethoxy]phenyl}methyl)pentanamide]",0.02 nM,93 nM
"CN1CCN(C(=O)COc2ccc(C[C@H](C[C@H](O)CN3C(=O)[C@@H](Cc4ccccc4)C[C@@H]3Cc3ccccc3)C(=O)N[C@H]3c4ccccc4C[C@H]3O)cc2)CC1 [(2R,4S)-5-[(3S,5R)-3,5-dibenzyl-2-oxopyrrolidin-1-yl]-4-hydroxy-N-[(1S,2R)-2-hydroxy-2,3-dihydro-1H-inden-1-yl]-2-({4-[2-(4-methylpiperazin-1-yl)-2-oxoethoxy]phenyl}methyl)pentanamide]",0.05 nM,130 nM
"O=C(N[C@H]1c2ccccc2C[C@H]1O)[C@H](Cc1ccccc1)C[C@H](O)CN1C(=O)[C@@H](Cc2ccccc2)C[C@@H]1Cc1ccc(O)cc1 [(2R,4S)-2-benzyl-5-[(3S,5R)-3-benzyl-5-[(4-hydroxyphenyl)methyl]-2-oxopyrrolidin-1-yl]-4-hydroxy-N-[(1S,2R)-2-hydroxy-2,3-dihydro-1H-inden-1-yl]pentanamide]",,200 nM
"O=C(N[C@H]1c2ccccc2C[C@H]1O)[C@H](Cc1ccc(OCCO)cc1)C[C@H](O)CN1C(=O)[C@@H](Cc2ccccc2)C[C@@H]1Cc1ccccc1 [(2R,4S)-5-[(3S,5R)-3,5-dibenzyl-2-oxopyrrolidin-1-yl]-4-hydroxy-N-[(1S,2R)-2-hydroxy-2,3-dihydro-1H-inden-1-yl]-2-{[4-(2-hydroxyethoxy)phenyl]methyl}pentanamide]",0.02 nM,94 nM
"O=C(N[C@H]1c2ccccc2C[C@H]1O)[C@H](Cc1ccc(OCCOC(=O)N2CCOCC2)cc1)C[C@H](O)CN1C(=O)[C@@H](Cc2ccccc2)C[C@@H]1Cc1ccccc1 [2-{4-[(2R)-2-[(2S)-3-[(3S,5R)-3,5-dibenzyl-2-oxopyrrolidin-1-yl]-2-hydroxypropyl]-2-{[(1S,2R)-2-hydroxy-2,3-dihydro-1H-inden-1-yl]carbamoyl}ethyl]phenoxy}ethyl morpholine-4-carboxylate]",0.05 nM,240 nM
"O=C(N[C@H]1c2ccccc2C[C@H]1O)[C@H](Cc1ccc(OCC(=O)N2CCOCC2)cc1)C[C@H](O)CN1C(=O)[C@@H](Cc2ccccc2)C[C@@H]1Cc1ccccc1 [(2R,4S)-5-[(3S,5R)-3,5-dibenzyl-2-oxopyrrolidin-1-yl]-4-hydroxy-N-[(1S,2R)-2-hydroxy-2,3-dihydro-1H-inden-1-yl]-2-({4-[2-(morpholin-4-yl)-2-oxoethoxy]phenyl}methyl)pentanamide]",0.02 nM,63 nM
